Like-named read-outs stand apart in the source and are kept apart here.
Experiments:
[1] = test system: amphotropic murine leukemia virus (AMLV); test: microbe, parasite or virus in culture; type: cell-based; conditions: single round infection assay, in words
HIV-1JR-CSF = test: microbe, parasite or virus in culture; type: cell-based
HIV-1HxBc2 = test: microbe, parasite or virus in culture; type: cell-based
[2] = test system: attachment of HIV-1HxBc2 to U87-CD+-CXCR4+ cells; test: Temperature shift assay (viral attachment); type: cell-based
Protocol: The entry process can be divided into two temperature-dependent stages, with receptor and coreceptor binding occurring over the temperature range 0-37° C., while the fusion process only occurs at temperatures above 25° C. (Frey, et al., 1995, J. Virol. 69:1462-1472). Based upon differential ranges in temperatures at which binding and fusion/entry occur, a novel assay was developed to detect viral attachment in the presence or absence of inhibitors. Recombinant single-round infective HIV-1 virions are incubated with permissive cells at 4° C. for 2 hours to only allow the initial receptor/coreceptor engagement. Unattached virions, and the compound, are then removed by washing the cells with cold media followed by centrifugation at 1200 rpm for 4 min at 4° C. Cells are replenished with fresh media and transferred to 37° C. After 48 hour of incubation, the level of infection is measured by a luciferase activity as in the standard single-round infection assay. […] Conversely, the small molecule CD4-mimetic NBD-556, which is known to disrupt the gp120-CD4 interaction, reduces the level of infection to 40% of vehicle (DMSO) alone (FIG. 11). […] Moreover, this analysis may be extended to encompass viruses that utilize CCR5 for entry.

HIV-1 isolate BaL = test: microbe, parasite or virus in culture; type: cell-based; conditions: Human immunodeficiency virus 1, tropism R5
HIV-1 isolate JR-FL = test: microbe, parasite or virus in culture; type: cell-based; conditions: Human immunodeficiency virus 1, tropism R5
HIV-1 isolate AC10.0.29 = test: microbe, parasite or virus in culture; type: cell-based; conditions: Human immunodeficiency virus 1; isolate AC10.0.29, tropism R5
[3] = test system: HIV-1 94US_3393IN (subtype B); test: HIV-1 replication assay in primary human PBMCs, isolate 94US_3393IN
[4] = test system: HIV-1 99UG_A07412M1 (subtype D); test: HIV-1 replication assay in primary human PBMCs, isolate 99UG_A07412M1; type: cell-based
HIV-2 CDC310319 = test: Replication assay in primary human PBMCs, HIV-2 isolate; type: cell-based
[5] = test system: HIV-1 98US_MSC5016 (subtype C); test: HIV-1 replication assay in primary human PBMCs, isolate 98US_MSC5016; type: cell-based
[6] = test system: HIV-1 92UG037 (subtype A); test: HIV-1 replication assay in primary human PBMCs, isolate 92UG037; type: cell-based
in vitro = type: cell-based; conditions: human
Protocol: Moreover, this assay was performed using healthy, primary cells to gain further insight into potential toxicities of the compound towards natural target cells. Additionally, as a key issue in the development of novel HIV drugs is their ability to inhibit the replication of genetically diverse isolates (especially isolates from the most globally prevalent subtypes A, B, C, and D), it was chosen to assess the potency of SC26 to inhibit the replication of isolates from subtypes A, B, C, and D in primary human peripheral blood mononuclear cells (PBMCs). Concomitantly, toxicity of SC26 to the PBMCs was assessed using an MTT assay. As can be observed from the IC50 values, the potency of SC26 against different isolates ranges quite dramatically, most likely reflecting differences in the binding site between subtypes.

[7] = test system: HIV-1 91US004 (subtype B); test: HIV-1 replication assay in primary human PBMCs, isolate 91US004; type: cell-based
[8] = Human immunodeficiency virus 1, read-out: IC50 JR-CSF
[9] = Human immunodeficiency virus 1, read-out: IC50 HxBc2
[10] = Human immunodeficiency virus 1, PBMC, human PBMCs

COc1cnc(Cl)c2[nH]cc(C(=O)C(=O)N3CC4CN(C(=O)c5ccccc5)CC4C3)c12 (stereo not drawn) [SC07, 1-(5-benzoylhexahydropyrrolo[3,4-c]pyrrol-2(1H)-yl)-2-(7-chloro-4-methoxy-1H-pyrrolo[2,3-c]pyridin-3-yl)ethane-1,2-dione]
specificity to HIV-1 (inhibition of AMLV-pseudotyped HIV-1) [1]: no inhibition of AMLV-pseudotyped HIV-1 | IC50 (HIV-1JR-CSF; [8]): 0.98 ± 0.06 µM | IC50 (HIV-1HxBc2; [9]): 16.8 ± 6.2 µM

COc1cnc(-n2cnc(C)n2)c2[nH]cc(C(=O)C(=O)N3CC4C=NN(c5ccccc5)C4C3)c12 (stereo not drawn) [SC12, 1-(4-methoxy-7-(3-methyl-1H-1,2,4-triazol-1-yl)-1H-pyrrolo[2,3-c]pyridin-3-yl)-2-(1-phenyl-3a,4,6,6a-tetrahydropyrrolo[3,4-c]pyrazol-5(1H)-yl)ethane-1,2-dione]
block of viral attachment ([2]; temperature shift assay, in words): does not appear to block viral attachment | IC50 (HIV-1JR-CSF; Human immunodeficiency virus 1): 0.013 ± 0.003 µM | IC50 (HIV-1JR-CSF; [8]): 0.008 ± 0.002 µM | IC50 (HIV-1 isolate BaL): 3.5 ± 0.3 µM | IC50 (HIV-1 isolate JR-FL): 0.106 ± 0.052 µM | IC50 (HIV-1 isolate AC10.0.29): 0.488 ± 0.047 µM | IC50 (HIV-1HxBc2; Human immunodeficiency virus 1): 0.024 ± 0.003 µM | IC50 (HIV-1HxBc2; [9]): 0.08 ± 0.02 µM

CC1(C)CC(NC(=O)C(=O)Nc2ccc(Cl)cc2)CC(C)(C)N1 [NBD-556, N1-(4-chlorophenyl)-N2-(2,2,6,6-tetramethyl-4-piperidinyl)-ethanediamide, reference compound]
level of infection relative to vehicle (DMSO) alone ([2]; virions with cells at 4° C. for 2 hours, wash, 37° C. 48 hour, FIG. 11): 40%

COc1cnc(-n2cnc(C)n2)c2[nH]cc(C(=O)C(=O)N3CC4CN(C(=O)C5=CCCCC5)CC4C3)c12 (stereo not drawn) [SC26, 1-(5-(cyclohex-1-ene-1-carbonyl)hexahydropyrrolo[3,4-c]pyrrol-2(1H)-yl)-2-(4-methoxy-7-(3-methyl-1H-1,2,4-triazol-1-yl)-1H-pyrrolo[2,3-c]pyridin-3-yl)ethane-1,2-dione]
Antiviral index (TC50/IC50) [3]: >166,666 | Antiviral index (TC50/IC50) [4]: >204 | IC50 [4, 10]: 0.49 ± 0.06 µM | IC50 (HIV-2 CDC310319; Human immunodeficiency virus 2, PBMC, HIV-2 CDC310319, human PBMCs): > 100 µM | effect on the replication of an HIV-2 isolate (HIV-2 CDC310319; human PBMCs, in words): no effect | Antiviral index (TC50/IC50) [5]: >25.6 | IC50 [5, 10]: 3.9 ± 0.8 µM | Antiviral index (TC50/IC50) [6]: >3.97 | IC50 [6, 10]: 25.2 ± 6.9 µM | IC50 (HIV-1JR-CSF; [8]): 0.002 ± 0.0001 µM | CC50 at 7 days (in vitro): > 100 µM | Antiviral index (TC50/IC50) [7]: >513 | IC50 [7, 10]: 0.195 ± 0.012 µM | IC50 (HIV-1HxBc2; Human immunodeficiency virus 1): 0.0006 ± 1e-05 µM | IC50 (HIV-1HxBc2; [9]): 0.0006 ± 8e-05 µM

COc1ncc(OC)c2c(C(=O)C(=O)N3CC4CN(C(=O)c5ccccc5)CC4C3)c[nH]c12 (stereo not drawn) [SC08, 1-(5-benzoylhexahydropyrrolo[3,4-c]pyrrol-2(1H)-yl)-2-(4,7-dimethoxy-1H-pyrrolo[2,3-c]pyridin-3-yl)ethane-1,2-dione]
specificity to HIV-1 (inhibition of AMLV-pseudotyped HIV-1) [1]: no inhibition of AMLV-pseudotyped HIV-1 | IC50 (HIV-1JR-CSF; read-out: IC50 JR-CSF, single round infection assay): 0.09 ± 0.01 µM | IC50 (HIV-1HxBc2; [9]): 0.19 ± 0.08 µM

From patent publication US9920073B2, “Compositions useful for inhibiting HIV-1 infection and methods using same” (Drexel University, priority 2013, dated 2018)
